This test relates to cathelicidin LL-37 expression. Description: cathelicidin LL-37 immunolabeling of primary macrophages exposed for 18 hours to samples. It counts as cell-based, C57bl/6 mice. The following applies: primary bone marrow-derived macrophages, 18 hours exposure. The procedure: Primary macrophages were differentiated from mononuclear cells harvested from the bone marrow of C57bl/6 mice. A solution of these primary macrophages was divided into 18 wells, each of which was exposed for 18 hours to one of samples nos. 1-18; i.e., a composition comprising either a species of interest dissolved in cell growth media or a solubilized biological scaffold dissolved in cell growth media. […]
After immunolabeling preparation, images were taken of the counterstained macrophages for three 20× fields for each well using a Zeus live-cell microscope. […] The light exposure time that produced the best images was determined, and the remaining samples were imaged at this light exposure time.
After immunolabeling, each macrophage nucleus appeared blue in the immunolabeling images and cathelicidin LL-37 appeared green. The percentages of macrophages expressing cathelicidin LL-37 shown in FIG. 7 were calculated by dividing the number of cathelicidin LL-37-expressing cells in each image (determined by the number of blue nuclei located in close proximity to green cathelicidin LL-37) by the number of cells in each image (determined by the number of blue nuclei in each image). The identification of cathelicidin LL-37 and cell nuclei in the images was determined with the aid of CellProfiler, a […] software analyzer (available at http://www.cellprofiler.org). […]

Data on one compound can be found in patent publication US12329883B2, “Soft tissue repair implants comprising hydroxybutyrate” (Davol Inc., priority 2017, dated 2025).

With `O=C(O)CCCO` [4-hydroxybutyrate], the “cathelicidin LL-37 expression (percent of cathelicidin LL-37 expressing cells, FIG. 6 and FIG. 7)” value (Example 1, 4HB 12 mM) was “strongly promoted”. Further, the “cathelicidin LL-37 expression (percent of cathelicidin LL-37 expressing cells, FIG. 8 and FIGS. 9-16)” value (Example 2, concentration series of Table 2) was “effectively induce”.
